Data from patent US9732089B2, “Substituted pyrazolo[1,5-a]pyrimidines and their use in the treatment of medical disorders” (Lysosomal Therapeutics Inc., priority 2014, dated 2017).
≈ marks a conversion by molar mass, not a printed value.

Experiment: Compound solubility in water
Assay type: physicochemical

Row | SMILES | solubility [µg/mL]
1 | C#Cc1ccc(NC(=O)c2cnn3c(C)cc(C)nc23)nc1 [III-1] | < 1.5
2 | C#Cc1ccc(NC(=O)c2cnn3c(C)cc(C)nc23)cn1 [III-2] | < 1.5
3 | Cc1cc(C)n2ncc(C(=O)Nc3ccc(-c4ccccc4)cc3)c2n1 [III-3] | < 1.5
4 | COCC#Cc1ccc(NC(=O)c2cnn3c(C)cc(C)nc23)cc1 [III-4] | < 1.5
5 | Cc1cc(C)n2ncc(C(=O)Nc3ccc(Oc4ccccc4)cc3)c2n1 [III-5] | < 1.5
6 | Cc1cc(C)n2ncc(C(=O)Nc3ccc(-n4ccnc4)cc3)c2n1 [III-6] | < 1.5
7 | Cc1cc(C)n2ncc(C(=O)Nc3ccc(-c4nccs4)cc3)c2n1 [III-7] | < 1.5
8 | C#Cc1ccc(NC(=O)c2cnn3c(C)cc(C)nc23)c(OC)c1 [III-8] | < 1.5
9 | Cc1cc(C)n2ncc(C(=O)Nc3ccc(-c4ccon4)cc3)c2n1 [III-9] | < 1.5
10 | Cc1cc(C)n2ncc(C(=O)Nc3ccc(-c4cocn4)cc3)c2n1 [III-10] | < 1.5
11 | Cc1cc(C)n2ncc(C(=O)Nc3ccc(-c4ncco4)cc3)c2n1 [III-11] | < 1.5
12 | Cc1cc(C)n2ncc(C(=O)Nc3cc(-c4ccccc4)on3)c2n1 [III-12] | < 1.5
13 | C#CC1CCC(NC(=O)c2cnn3c(C)cc(C)nc23)CC1 (stereo not drawn) [III-13] | 26 (≈ 87.7 µM)
14 | C#C[C@H]1CC[C@H](NC(=O)c2cnn3c(C)cc(C)nc23)CC1 [III-14] | 17.6 (≈ 59.4 µM)
15 | C#C[C@H]1CC[C@@H](NC(=O)c2cnn3c(C)cc(C)nc23)CC1 [III-15] | 8 (≈ 27 µM)
16 | Cc1cc(C)n2ncc(C(=O)Nc3ccc(-c4cnsc4)cc3)c2n1 [III-16] | < 1.5
17 | Cc1cc(C)n2ncc(C(=O)Nc3ccc(-c4cnoc4)cc3)c2n1 [III-17] | < 1.5

Row | SMILES | solubility [µg/mL]
18 | Cc1cc(C)n2ncc(C(=O)Nc3cc(C4(C(F)(F)F)CC4)on3)c2n1 [III-18] | 2.6 (≈ 7.12 µM)
19 | Cc1cc(C)n2ncc(C(=O)Nc3ccc(-c4cocn4)nc3)c2n1 [III-19] | 3 (≈ 8.97 µM)
20 | Cc1cc(C)n2ncc(C(=O)Nc3ccc(-c4cccs4)nc3)c2n1 [III-20] | < 1.5
21 | Cc1cc(C)n2ncc(C(=O)Nc3ccc(-c4ccncc4)nc3)c2n1 [III-21] | < 1.5
22 | Cc1cc(C)n2ncc(C(=O)Nc3ccc(-c4ccco4)nc3)c2n1 [III-22] | < 1.5
23 | Cc1cc(C)n2ncc(C(=O)Nc3ccc(-c4cnn(C)c4)nc3)c2n1 [III-23] | < 1.5
24 | Cc1cc(C)n2ncc(CNc3ccc(-c4cocn4)nc3)c2n1 [III-24] | > 64
25 | Cc1ccn2ncc(CNc3ccc(-c4cocn4)cc3)c2n1 [III-25] | 54 (≈ 177 µM)
26 | Cc1ccn2ncc(CNc3ccc(-c4ncco4)cc3)c2n1 [III-26] | 39 (≈ 128 µM)
27 | Cc1cc(C)n2ncc(C(=O)Nc3ccc(-c4cscn4)cc3)c2n1 [III-27] | < 1.5
28 | Cc1cc(C)n2ncc(C(=O)Nc3nc4ccccc4[nH]3)c2n1 [III-28] | < 1.5
29 | COCC#Cc1ccc(NCc2cnn3c(C)cc(C)nc23)cc1 [III-29] | 5.4 (≈ 16.9 µM)
30 | Cc1cc(C)n2ncc(C(=O)Nc3ccc(-c4ncc[nH]4)cc3)c2n1 [III-30] | < 1.5
31 | Cc1cc(C)n2ncc(C(=O)Nc3ccc(-c4cc[nH]n4)cc3)c2n1 [III-31] | 33 (≈ 99.3 µM)
32 | CCCCCOc1ccc(NC(=O)c2cnn3c(C)cc(C)nc23)cc1 [III-32] | < 1.5
33 | C#CCOc1ccc(NC(=O)c2cnn3c(C)cc(C)nc23)cc1 [III-33] | < 1.5

The next lines start with the values.

Row | solubility [µg/mL] | SMILES
34 | < 1.5 | Cc1cc(C)n2ncc(C(=O)Nc3ccc(CCCC(=O)O)cc3)c2n1 [III-34]
35 | 10 (≈ 32.2 µM) | Cc1cc(C)n2ncc(C(=O)Nc3ccc(C(C)O)cc3)c2n1 (stereo not drawn) [III-35]
36 | 59.6 (≈ 176 µM) | Cc1cc(C)n2ncc(C(=O)Nc3ccc(CCC(=O)O)cc3)c2n1 [III-36]
37 | 26.1 (≈ 81.7 µM) | Cc1cc(C)n2ncc(CNc3ccc(-c4cocn4)cc3)c2n1 [III-37]
38 | < 1.5 | Cc1cc(C)n2ncc(C(=O)Nc3ccc(N=[N+]=[N-])cc3)c2n1 [III-38]
39 | < 1.5 | Cc1cc(C)n2ncc(C(=O)Nc3ccc(-c4cccs4)cc3)c2n1 [III-39]
40 | 0.3 (≈ 0.939 µM) | Cc1cc(C)n2ncc(C(=O)Nc3ccc4[nH]c(C)cc4c3)c2n1 [III-40]
41 | 0.5 (≈ 1.63 µM) | Cc1cc(C)n2ncc(C(=O)Nc3ccc4[nH]ncc4c3)c2n1 [III-41]
42 | 0.4 (≈ 1.31 µM) | Cc1cc(C)n2ncc(C(=O)Nc3ccc4cn[nH]c4c3)c2n1 [III-42]
43 | 0.3 (≈ 0.934 µM) | Cc1cc(C)n2ncc(C(=O)Nc3ccc4nc(C)oc4c3)c2n1 [III-44]
44 | 1.2 (≈ 3.75 µM) | Cc1cc(C)n2ncc(C(=O)Nc3ccc4nc(C)[nH]c4c3)c2n1 [III-45]
45 | 33.4 (≈ 104 µM) | Cc1cc(C)n2ncc(C(=O)Nc3ccc4c(c3)CCNC4)c2n1 [III-46]
46 | 0.9 (≈ 2.93 µM) | Cc1cc(C)n2ncc(C(=O)Nc3ccc4oncc4c3)c2n1 [III-47]
47 | 0.3 (≈ 0.78 µM) | Cc1cc(C)n2ncc(C(=O)Nc3ccc4oc(-c5ccncc5)nc4c3)c2n1 [III-48]
48 | 0.4 (≈ 1.07 µM) | Cc1cc(C)n2ncc(C(=O)Nc3ccc4[nH]c(-c5ccco5)nc4c3)c2n1 [III-49]
49 | 2.3 (≈ 6.82 µM) | Cc1cc(C)n2ncc(C(=O)Nc3ccc4nc(C)sc4c3)c2n1 [III-50]
50 | 0.06 (≈ 0.147 µM) | Cc1cc(C)n2ncc(C(=O)Nc3ccc(Cl)c(COc4cccnc4)c3)c2n1 [III-51]
51 | 0.05 (≈ 0.144 µM) | Cc1cc(C)n2ncc(C(=O)Nc3ccc(C)c(-c4ncco4)c3)c2n1 [III-52]
52 | < 0.05 | Cc1cc(C)n2ncc(C(=O)Nc3ccc(Cl)c(-c4cnco4)c3)c2n1 [III-53]
53 | 2.1 (≈ 6.06 µM) | Cc1cc(C)n2ncc(C(=O)Nc3ccc(-c4cnn(C)c4)cc3)c2n1 [III-54]
54 | < 1.5 | Cc1cc(C)n2ncc(C(=O)Nc3ccc(-c4ccco4)cc3)c2n1 [III-55]
55 | < 1.5 | Cc1cc(C)n2ncc(C(=O)Nc3ccc(-c4ccncc4)cc3)c2n1 [III-56]
56 | 2.6 (≈ 8.11 µM) | Cc1cc(C)n2ncc(C(=O)NC3CCCc4ccccc43)c2n1 (stereo not drawn) [III-58]
57 | 7.1 (≈ 19.8 µM) | CCCCCO[C@H]1CC[C@H](NC(=O)c2cnn3c(C)cc(C)nc23)CC1 [III-59]

Row | solubility [µg/mL] | SMILES
58 | 7.2 (≈ 23.1 µM) | Cc1cc(C)n2ncc(C(=O)N[C@@H](C)c3ccccc3F)c2n1 [III-60]
59 | 1.4 (≈ 4.32 µM) | COc1ccccc1[C@H](C)NC(=O)c1cnn2c(C)cc(C)nc12 [III-61]
60 | 2.5 (≈ 7.71 µM) | COc1ccccc1[C@@H](C)NC(=O)c1cnn2c(C)cc(C)nc12 [III-62]
61 | 11.9 (≈ 36.2 µM) | Cc1cc(C)n2ncc(C(=O)N[C@@H](C)c3cccc(Cl)c3)c2n1 [III-63]
62 | 0.7 (≈ 2.13 µM) | Cc1cc(C)n2ncc(C(=O)N[C@H](C)c3ccc(Cl)cc3)c2n1 [III-64]
63 | 27.6 (≈ 88.4 µM) | Cc1cc(C)n2ncc(C(=O)N[C@H](C)c3ccc(F)cc3)c2n1 [III-65]
64 | 20.6 (≈ 61.2 µM) | Cc1cc(C)n2ncc(C(=O)NC(C)C3CCC(F)(F)CC3)c2n1 (stereo not drawn) [III-66]
65 | 2.2 (≈ 6.42 µM) | Cc1cc(C)n2ncc(C(=O)NC(C)(C)c3ccc(Cl)cc3)c2n1 [III-67]
66 | 2.1 (≈ 5.78 µM) | Cc1cc(Cl)n2ncc(C(=O)NC(C)(C)c3ccc(Cl)cc3)c2n1 [III-68]
67 | 5.1 (≈ 14 µM) | Cc1cc(Cl)nc2c(C(=O)NC(C)(C)c3ccc(Cl)cc3)cnn12 [III-69]
68 | 2 (≈ 5.81 µM) | Cc1cc(C)n2ncc(C(=O)NC(C)(C)c3ccc(F)cc3F)c2n1 [III-70]
69 | 21.4 (≈ 62.1 µM) | CO[C@H]1CC[C@H](C(C)(C)NC(=O)c2cnn3c(C)cc(C)nc23)CC1 [III-71]
70 | 15.1 (≈ 43.8 µM) | CO[C@H]1CC[C@@H](C(C)(C)NC(=O)c2cnn3c(C)cc(C)nc23)CC1 [III-72]
71 | 34 (≈ 87.5 µM) | Cc1cc(C)n2ncc(C(=O)Nc3ccc4c(c3)C(C3=NCCN3)CCC4)c2n1 (stereo not drawn) [III-73]
72 | 0.2 (≈ 0.726 µM) | C#Cc1ccc(NCc2cnn3c(C)cc(C)cc23)cc1 [III-74]
73 | 0.1 (≈ 0.237 µM) | Cc1cc(C)n2ncc(C(=O)Nc3ccc(Cl)c(C(C)Oc4cccnc4)c3)c2n1 (stereo not drawn) [III-75]
74 | 4.2 (≈ 13.8 µM) | C#Cc1ccc(NC(=O)c2cnn3c(C)cc(NC)nc23)cc1 [III-77]
75 | < 1.5 | C#Cc1ccc(NC(=O)c2cnn3c(NC)cc(C)nc23)cc1 [III-78]
76 | 0.8 (≈ 2.61 µM) | Cc1cc(C)n2ncc(C(=O)NC3CCc4ccccc43)c2n1 (stereo not drawn) [III-79]
77 | < 1.5 | C#Cc1ccc(NC(=O)c2cnn3c(C)cc(C)nc23)cc1 [IV-1]
78 | 5.1 (≈ 14.7 µM) | Cc1cc(C)n2ncc(C(=O)Nc3ccc(C#CCN(C)C)cc3)c2n1 [IV-2]
79 | < 1.5 | Cc1cc(C)n2ncc(C(=O)Nc3ccc(N4CCCCC4)cc3)c2n1 [IV-3]
80 | 0.6 (≈ 1.93 µM) | Cc1cc(C)n2ncc(C(=O)Nc3ccc4c(c3)OCO4)c2n1 [IV-4]
81 | 0.5 (≈ 1.63 µM) | Cc1cc(C)n2ncc(C(=O)Nc3ccc4c(c3)CCC4)c2n1 [IV-5]
